Results reported in the supplement of paper PMC11061612.

What was measured:
Assay in all cases: Bliss excess, mean over the matrix (fraction); higher = more synergy
[1] = system: HT-1376 (Bladder Carcinoma)
Outline: (§1)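 Bliss excess equals the observed combination effect minus the expected value EA + EB − EA·EB, where EA and EB are the effects of each agent alone. Combination Emax is the second-highest inhibition within the matrix. Inhibition was scaled from CellTiter-Glo 2.0 luminescence, with 0 set by vehicle wells and 1 by blank wells, after 72 hours of two-drug dosing of cells plated in 1536-well plates.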

[2] = system: CAL-148 (Breast Carcinoma)
Outline: as §1

[3] = system: KP-1N (Pancreatic Carcinoma)
Outline: as §1

NB10 (Neuroblastoma) = system: NB10 (Neuroblastoma)
Outline: as §1

[4] = system: KYSE-520 (Esophageal Squamous Cell Carcinoma)
Outline: as §1

[5] = system: HCC-78 (Lung Adenocarcinoma)
Outline: as §1

[6] = system: TCCSUP (Bladder Carcinoma)
Outline: as §1

[7] = system: Hs-578-T (Breast Carcinoma)
Outline: as §1

[8] = system: HO-1-N-1 (Oral Cavity Carcinoma)
Outline: as §1

[9] = system: COLO-205 (Colorectal Carcinoma)
Outline: as §1

[10] = system: OVCA420 (Ovarian Carcinoma)
Outline: as §1

[11] = system: DoTc2-4510 (Cervical Carcinoma)
Outline: as §1

[12] = system: RO82-W-1 (Thyroid Gland Carcinoma)
Outline: as §1

[13] = system: NCI-H82 (Small Cell Lung Carcinoma)
Outline: as §1

HOS (Osteosarcoma) = system: HOS (Osteosarcoma)
Outline: as §1

[14] = system: LS-180 (Colorectal Carcinoma)
Outline: as §1

[15] = system: LNCaP-Clone-FGC (Prostate Carcinoma)
Outline: as §1

[16] = system: KURAMOCHI (Ovarian Carcinoma)
Outline: as §1

[17] = system: HCC1806 (Breast Carcinoma)
Outline: as §1

[18] = system: EC-GI-10 (Esophageal Squamous Cell Carcinoma)
Outline: as §1

Row | Compound | Bliss excess [1] | Bliss excess [2] | Bliss excess [3] | Bliss excess (NB10 (Neuroblastoma)) | Bliss excess [4] | Bliss excess [5] | Bliss excess [6] | Bliss excess [7] | Bliss excess [8] | Bliss excess [9] | Bliss excess [10] | Bliss excess [11] | Bliss excess [12] | Bliss excess [13] | Bliss excess (HOS (Osteosarcoma)) | Bliss excess [14] | Bliss excess [15] | Bliss excess [16] | Bliss excess [17] | Bliss excess [18]
1 | CC1(C)CCC(CN2CCN(c3ccc(C(=O)NS(=O)(=O)c4ccc(NCC5CCOCC5)c([N+](=O)[O-])c4)c(Oc4cnc5[nH]ccc5c4)c3)CC2)=C(c2ccc(Cl)cc2)C1 [Venetoclax] + C1CN(CCC1(C(=O)N[C@@H](CCO)C2=CC=C(C=C2)Cl)N)C3=NC=NC4=C3C=CN4 [Capivasertib] (first compound max 1 µM, 7x7, partner max 3 µM) | -0.0621 | -0.0444 | -0.0193 | -0.0808 | -0.0575 | -0.0331 | -0.0196 | -0.0255 | -0.0176 | -0.0423 | -0.0357 | -0.0185 | -0.0312 | -0.0458 | -0.0243 | -0.0173 | -0.0464 | -0.0538 | -0.0087 | -0.0488
2 | CC1(C)CCC(CN2CCN(c3ccc(C(=O)NS(=O)(=O)c4ccc(NCC5CCOCC5)c([N+](=O)[O-])c4)c(Oc4cnc5[nH]ccc5c4)c3)CC2)=C(c2ccc(Cl)cc2)C1 [Venetoclax] + C=CCn1c(=O)c2cnc(Nc3ccc(N4CCN(C)CC4)cc3)nc2n1-c1cccc(C(C)(C)O)n1 [AZD1775] (first compound max 1 µM, partner max 1 µM) | -0.0226 | 0.0589 | -0.047 | -0.0113 | -0.0907 | 0.0098 | -0.055 | -0.0347 | 0.0912 | -0.0661 | -0.0079 | 0.0075 | -0.0757 | 0.0342 | -0.0335 | -0.0559 | -0.0599 | 0.0572 | -0.026 | 0.0086
3 | CC1(C)CCC(CN2CCN(c3ccc(C(=O)NS(=O)(=O)c4ccc(NCC5CCOCC5)c([N+](=O)[O-])c4)c(Oc4cnc5[nH]ccc5c4)c3)CC2)=C(c2ccc(Cl)cc2)C1 [Venetoclax] + CCN(CCO)CCCOc1ccc2c(Nc3cc(CC(=O)Nc4cccc(F)c4)[nH]n3)ncnc2c1 [AZD2811] (first compound max 1 µM, 7x7, partner max 1 µM) | -0.0605 | -0.0461 | -0.0182 | -0.0539 | -0.0294 | -0.0149 | -0.0259 | -0.0451 | -0.032 | -0.0461 | -0.0114 | -0.0189 | -0.0604 | 0.0452 | -0.0102 | -0.0106 | -0.0706 | -0.0237 | 0.0137 | -0.0058
4 | CC1(C)CCC(CN2CCN(c3ccc(C(=O)NS(=O)(=O)c4ccc(NCC5CCOCC5)c([N+](=O)[O-])c4)c(Oc4cnc5[nH]ccc5c4)c3)CC2)=C(c2ccc(Cl)cc2)C1 [Venetoclax] + CN(C)CCCOc1ccc(-c2ccc3ncc4c(c3c2)n(C2CCOCC2)c(=O)n4C)cn1 [AZD0156] (first compound max 1 µM, 7x7, partner max 1 µM) | -0.0151 | -0.0006 | -0.0431 | 0.0418 | -0.0218 | 0.0213 | -0.036 | -0.0426 | 0.0445 | -0.0153 | -0.02 | -0.0148 | -0.0586 | 0.0295 | -0.033 | -0.0099 | -0.0503 | -0.0039 | 0.0097 | 0.0119
5 | CC1(C)CCC(CN2CCN(c3ccc(C(=O)NS(=O)(=O)c4ccc(NCC5CCOCC5)c([N+](=O)[O-])c4)c(Oc4cnc5[nH]ccc5c4)c3)CC2)=C(c2ccc(Cl)cc2)C1 [Venetoclax] + COc1cc(Nc2ncc3c(n2)-c2ccc(Cl)cc2C(c2c(F)cccc2OC)=NC3)ccc1C(=O)O [Alisertib] (first compound max 1 µM, 7x7, partner max 10 µM) | -0.0812 | -0.0175 | 0.0194 | -0.0052 | -0.0489 | 0.0127 | -0.0341 | 0.107 | -0.0846 | -0.0172 | -0.025 | -0.0367 | -0.0658 | 0.0328 | -0.0132 | -0.008 | 0.0008 | -0.0992 | 0.0042 | 0.0164
6 | CC1(C)CCC(CN2CCN(c3ccc(C(=O)NS(=O)(=O)c4ccc(NCC5CCOCC5)c([N+](=O)[O-])c4)c(Oc4cnc5[nH]ccc5c4)c3)CC2)=C(c2ccc(Cl)cc2)C1 [Venetoclax] + C[C@@H]1COCCN1C2=NC(=NC(=C2)C3(CC3)[S@](=N)(=O)C)C4=C5C=CNC5=NC=C4 [AZD6738] (first compound max 1 µM, 7x7, partner max 10 µM) | -0.0365 | -0.0501 | -0.0217 | 0.0159 | -0.0353 | -0.0195 | -0.1 | -0.122 | -0.0248 | -0.0328 | 0.0047 | -0.0174 | -0.0504 | 0.0098 | -0.0099 | -0.0174 | -0.0645 | -0.0451 | -0.0665 | 0.0294
7 | CC1(C)CCC(CN2CCN(c3ccc(C(=O)NS(=O)(=O)c4ccc(NCC5CCOCC5)c([N+](=O)[O-])c4)c(Oc4cnc5[nH]ccc5c4)c3)CC2)=C(c2ccc(Cl)cc2)C1 [Venetoclax] + C[C@@H](Nc1cc(F)cc(F)c1)c1cc(C(=O)N(C)C)cc2c(=O)cc(N3CCOCC3)oc12 [AZD8186] (first compound max 1 µM, 7x7, partner max 3 µM) | -0.0446 | 0.0101 | 0.0036 | -0.0084 | -0.06 | -0.0337 | -0.0442 | -0.0314 | -0.009 | 0.0279 | -0.0285 | -0.0078 | -0.0455 | -0.0452 | -0.0262 | -0.0286 | -0.0066 | -0.0467 | -0.0149 | -0.0139
8 | CC1(C)CCC(CN2CCN(c3ccc(C(=O)NS(=O)(=O)c4ccc(NCC5CCOCC5)c([N+](=O)[O-])c4)c(Oc4cnc5[nH]ccc5c4)c3)CC2)=C(c2ccc(Cl)cc2)C1 [Venetoclax] + Cc1cc2ncnn2cc1Nc1ncc2c(n1)n(C1CCOCC1)c(=O)n2C [AZD7648] (first compound max 1 µM, 7x7, partner max 10 µM) | -0.0226 | -0.0143 | -0.0217 | 0.0053 | -0.0284 | -0.017 | -0.0444 | -0.0162 | 0.0318 | -0.0584 | -0.0089 | -0.0413 | -0.0346 | -0.0227 | -0.0019 | -0.0061 | -0.0963 | -0.0605 | 0.0043 | 0.038
9 | CC1(C)CCC(CN2CCN(c3ccc(C(=O)NS(=O)(=O)c4ccc(NCC5CCOCC5)c([N+](=O)[O-])c4)c(Oc4cnc5[nH]ccc5c4)c3)CC2)=C(c2ccc(Cl)cc2)C1 [Venetoclax] + Cn1cnc2c(F)c(Nc3ccc(Br)cc3Cl)c(C(=O)NOCCO)cc21 [Selumetinib] (first compound max 1 µM, 7x7, partner max 3 µM) | -0.0411 | -0.0148 | -0.0176 | 0.0021 | -0.0836 | -0.0329 | -0.0444 | 0.0045 | -0.0037 | -0.0722 | -0.045 | -0.0414 | -0.0552 | -0.0125 | -0.0282 | 0.0538 | -0.0459 | -0.0333 | -0.025 | -0.0293
